Laboratory results reported in patent US11427553B2, “Dihydrooxadiazinones” (Bayer Aktiengesellschaft, priority 2017, dated 2022).

Legend:
SK-MEL-3 cells = experiment: Assay 1 cell proliferation measurement (CTG, 72 h), SK-MEL-3; assay type: cell-based, human; conditions: Homo sapiens, SK-MEL3; Assay 1, 72 h, Cell Titer Glo; read-out: SK-MEL-3 IC50 [nM] (melanoma)
Protocol: (§1) Cell Proliferation Measurement
(§2) The antiproliferative activity of the compounds of the general formula (I) was examined in vitro in human cancer cells. For this purpose, the appropriate number of cells (Hela: 800; SK-MEL-3: 1000; A549: 800) were plated in 384-well plates with appropriate growth medium ((A549: DMEM/Ham's F12 (Biochrom; #FG 4815 with stabile Glutamine), FCS 10% final (Biochrom; #S 0415); Hela: DMEM/Ham's F12 (Biochrom; #FG 4815 with stabile Glutamine), FCS 10% final (Biochrom; #S 0415); SK-MEL-3: McCoy's 5A (Biochrom; #F 1015), FCS 10% final (Biochrom; #S 0415), L-Alanyl-L-Glutamine final: 2 mM, (Biochrom; #K 0302)) and incubated at 37° C. overnight. After 24 h, cells on one plate (0 h plate) were treated with 30 μl/cavity of CTG solution (Promega Cell Titer Glo (catalogue #G755B and G756B)) and incubated at room temperature for 10 min, and luminescence was measured by means of a VICTOR V (Perkin Elmer), in order to determine cell viability on commencement of treatment. The cells on the test plate were treated with the compounds of the general formula (I) as and incubated at 37° C. for 72 h. The compounds were added to the cells by means of an HP D300 digital dispenser in a 10-step 2.5-fold dilution series generally starting at a maximum final drug concentration of 100 nM. As control, the cells were treated with vehicle (DMSO at 0.3% final concentration). After 72 h, the cells were treated with 30 μl/cavity of CTG solution (Promega Cell Titer Glo (catalogue #G755B and G756B)) and incubated at room temperature for 10 min. and luminescence was measured by means of a VICTOR V (Perkin Elmer), in order to determine cell viability at the end of treatment. The percentage effect on cell growth and the IC50 derived therefrom were determined for each test substance using the values from the 0 h plate […] and the DMSO control […]. The IC50 values were calculated using a 4-parameter fit.

human full length PDE3A = human full length PDE3A (Homo sapiens (Human), UniProt Q14432); experiment: Assay 4 PDE3A enzyme inhibition (3H-cAMP SPA); assay type: biochemical; conditions: Sf9 cell extract
Sequence of human full length PDE3A (Q14432 whole entry): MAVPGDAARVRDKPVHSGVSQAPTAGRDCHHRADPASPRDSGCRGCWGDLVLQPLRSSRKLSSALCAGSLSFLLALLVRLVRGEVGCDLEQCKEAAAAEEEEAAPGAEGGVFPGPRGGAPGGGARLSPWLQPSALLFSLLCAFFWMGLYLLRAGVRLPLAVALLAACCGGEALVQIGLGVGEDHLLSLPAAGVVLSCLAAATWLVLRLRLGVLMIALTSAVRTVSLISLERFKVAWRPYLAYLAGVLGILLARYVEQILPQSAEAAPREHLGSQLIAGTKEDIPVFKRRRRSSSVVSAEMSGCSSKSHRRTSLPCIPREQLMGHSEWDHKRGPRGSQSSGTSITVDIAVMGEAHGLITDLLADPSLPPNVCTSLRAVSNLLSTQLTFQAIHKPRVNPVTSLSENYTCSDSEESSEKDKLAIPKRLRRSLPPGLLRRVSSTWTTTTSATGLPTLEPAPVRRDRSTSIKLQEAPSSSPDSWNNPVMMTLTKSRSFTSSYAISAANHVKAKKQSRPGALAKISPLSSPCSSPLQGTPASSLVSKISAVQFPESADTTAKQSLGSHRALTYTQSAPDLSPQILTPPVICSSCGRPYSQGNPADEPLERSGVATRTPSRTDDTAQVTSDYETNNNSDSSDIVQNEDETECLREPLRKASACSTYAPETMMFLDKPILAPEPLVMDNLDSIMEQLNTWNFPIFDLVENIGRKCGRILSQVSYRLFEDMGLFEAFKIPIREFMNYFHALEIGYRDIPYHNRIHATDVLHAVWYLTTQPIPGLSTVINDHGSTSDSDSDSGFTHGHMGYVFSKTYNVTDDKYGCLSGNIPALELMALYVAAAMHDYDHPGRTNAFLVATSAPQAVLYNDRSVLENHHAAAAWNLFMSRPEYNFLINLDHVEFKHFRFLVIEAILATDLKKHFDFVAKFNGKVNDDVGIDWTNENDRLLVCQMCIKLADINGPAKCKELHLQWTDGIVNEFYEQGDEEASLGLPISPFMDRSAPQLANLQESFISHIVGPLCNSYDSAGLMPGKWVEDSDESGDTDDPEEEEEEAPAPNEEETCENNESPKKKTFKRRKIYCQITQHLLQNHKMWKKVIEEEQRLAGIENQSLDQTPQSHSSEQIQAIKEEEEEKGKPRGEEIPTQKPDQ
Protocol: Assay 4 Method for PDE3A Enzyme Inhibition
(§3) The commercially available 3H-cAMP Scintillation Proximity Assay (SPA, Perkin Elmer) system was used for enzyme inhibition studies. For the determination of the in vitro effect of example compounds on the PDE3A reactions 2 μl of the respective example compound solution in DMSO (serial dilutions) were placed in wells of microtiter plates (Isoplate-96/200W; Perkin Elmer). 50 μl of a dilution of PDE3A cell extract from Sf9 cells overexpressing human full length PDE3A (SB Drug Discovery, UK) in buffer A (50 mM Tris/HCl pH 7.5, 8.3 mM MgCl2, 1.7 mM EDTA, 0.2% BSA) was added. The dilution of the PDE3A cell extract was chosen such that the reaction kinetics was linear and less than 70% of the substrate was consumed (typical dilution 1:5000). The reaction was started by addition of 50 μl (0.025 μCi) of 1:2000 in buffer A w/o BSA diluted substrate [8-3H]adenosine 3′, 5′-cyclic phosphate (1 μCi/μl; Perkin Elmer). After incubation at room temperature for 60 min, the reaction was stopped by addition of 25 μl of a suspension containing 18 mg/ml yttrium scintillation proximity beads (Perkin Elmer) in water. The microtiter plates were sealed and measured in a Microbeta scintillation counter (PerkinElmer Wallac). IC50 values were determined from sigmoidal curves by plotting percentage PDE3A activity vs log compound concentration.

HeLa cells = experiment: Assay 1 cell proliferation measurement (CTG, 72 h), HeLa; assay type: cell-based, human; conditions: Homo sapiens, HeLa; Assay 1, 72 h, Cell Titer Glo; read-out: HeLa IC50 [nM] (Cervical cancer)
Protocol: as §1, §2

human full length PDE3B = human full length PDE3B (Homo sapiens (Human), UniProt Q13370); experiment: Assay 5 PDE3B enzyme inhibition (3H-cAMP SPA); assay type: biochemical; conditions: Sf9 cell extract
Sequence of human full length PDE3B (Q13370 whole entry): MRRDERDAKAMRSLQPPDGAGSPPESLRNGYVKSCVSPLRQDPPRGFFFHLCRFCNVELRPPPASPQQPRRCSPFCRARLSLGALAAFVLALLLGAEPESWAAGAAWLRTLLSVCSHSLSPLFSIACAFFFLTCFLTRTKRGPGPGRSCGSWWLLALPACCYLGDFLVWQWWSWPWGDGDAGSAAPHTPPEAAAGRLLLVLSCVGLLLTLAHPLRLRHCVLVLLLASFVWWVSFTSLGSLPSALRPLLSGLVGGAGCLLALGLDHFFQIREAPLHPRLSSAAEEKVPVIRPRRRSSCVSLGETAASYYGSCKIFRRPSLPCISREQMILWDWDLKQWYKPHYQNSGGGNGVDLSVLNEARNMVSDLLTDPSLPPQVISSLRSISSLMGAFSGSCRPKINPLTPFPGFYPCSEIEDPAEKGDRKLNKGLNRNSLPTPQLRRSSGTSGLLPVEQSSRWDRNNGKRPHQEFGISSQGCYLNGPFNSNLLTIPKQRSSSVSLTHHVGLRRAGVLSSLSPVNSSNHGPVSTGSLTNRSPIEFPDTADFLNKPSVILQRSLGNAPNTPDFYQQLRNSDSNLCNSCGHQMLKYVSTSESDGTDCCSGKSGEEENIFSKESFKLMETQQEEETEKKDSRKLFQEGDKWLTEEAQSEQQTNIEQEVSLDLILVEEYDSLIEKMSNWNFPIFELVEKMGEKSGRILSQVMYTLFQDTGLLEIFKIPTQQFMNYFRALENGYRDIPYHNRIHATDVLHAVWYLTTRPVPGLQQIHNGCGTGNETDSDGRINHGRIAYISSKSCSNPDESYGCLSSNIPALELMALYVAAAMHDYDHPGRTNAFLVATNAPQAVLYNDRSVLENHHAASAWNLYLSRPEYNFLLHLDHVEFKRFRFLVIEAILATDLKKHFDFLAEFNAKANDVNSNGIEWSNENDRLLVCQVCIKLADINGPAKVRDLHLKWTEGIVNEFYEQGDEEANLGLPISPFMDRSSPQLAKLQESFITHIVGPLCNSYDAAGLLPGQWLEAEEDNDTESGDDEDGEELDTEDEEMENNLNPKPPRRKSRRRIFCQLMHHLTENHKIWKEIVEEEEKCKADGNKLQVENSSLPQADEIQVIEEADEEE
Protocol: as §3, with “PDE3B” for “PDE3A”, “1:6000).” for “1:5000).”

Row | SMILES | IC50 (SK-MEL-3 cells) [nM] | IC50 (human full length PDE3A) [nM] | IC50 (HeLa cells) [nM] | IC50 (human full length PDE3B) [nM]
1 | O=C1NN=C(c2ccc(NC3CC(O)C3)c(C(F)(F)F)c2)CO1 (mixture of isomers) [Example 206, (cis/trans)-5-[4-{[3-hydroxycyclobutyl]amino}-3-(trifluoromethyl)phenyl]-3,6-dihydro-2H-1,3,4-oxadiazin-2-one] | 1 | 15 | 0.5 | 20
2 | NC1CCC(Nc2ccc(C3=NNC(=O)OC3)cc2C(F)(F)F)CC1 (mixture of isomers) [Example 320, 5-[4-{[4-aminocyclohexyl]amino}-3-(trifluoromethyl)phenyl]-3,6-dihydro-2H-1,3,4-oxadiazin-2-one (mixture of stereoisomers)] | > 100 | 76 | > 100 | 220
3 | NC1CCCC(Nc2ccc(C3=NNC(=O)OC3)cc2C(F)(F)F)C1 (mixture of isomers) [Example 322, 5-[4-{[3-aminocyclohexyl]amino}-3-(trifluoromethyl)phenyl]-3,6-dihydro-2H-1,3,4-oxadiazin-2-one (mixture of stereoisomers)] | > 100 | 580 | > 100 | 780
4 | CC1OC(=O)NN=C1c1cc(F)c(N2CCOCC2)c(F)c1 (racemic) [Example 17, (rac)-5-[3,5-Difluoro-4-(morpholin-4-yl)phenyl]-6-methyl-3,6-dihydro-2H-1,3,4-oxadiazin-2-one] | 17 | 25 | 7 | 17
5 | CC1OC(=O)NN=C1c1ccc(N2CCOCC2)cc1 (racemic) [Example 20, (rac)-6-Methyl-5-[4-(morpholin-4-yl)phenyl]-3,6-dihydro-2H-1,3,4-oxadiazin-2-one] | 41 | 200 | 15 | 100
6 | CC1OC(=O)NN=C1c1ccc(N2CCOCC2)c(F)c1 (racemic) [Example 119, (rac)-5-(3-Fluoro-4-morpholinophenyl)-6-methyl-3,6-dihydro-2H-1,3,4-oxadiazin-2-one] | 7 | 36 | 5 | 13
7 | O=C1NN=C(c2ccc(C3=CCC(O)CC3)c(C(F)(F)F)c2)CO1 (racemic) [Example 141, (rac)-5-[4′-Hydroxy-2-(trifluoromethyl)-2′,3′,4′,5′-tetrahydro[1,1′-biphenyl]-4-yl]-3,6-dihydro-2H-1,3,4-oxadiazin-2-one] | 3 | 13 | 2 | 27
8 | O=C1NN=C(c2ccc(C3=CC4CCC3C4)c(C(F)(F)F)c2)CO1 (racemic) [Example 154, (rac)-5-[4-(Bicyclo[2.2.1]hept-2-en-2-yl)-3-(trifluoromethyl)phenyl]-3,6-dihydro-2H-1,3,4-oxadiazin-2-one] | 4 | 70 | 2 | 120
9 | Cc1cc(C2=NNC(=O)OC2)ccc1-c1cccnc1 [Example 13, 5-[3-Methyl-4-(pyridin-3-yl)phenyl]-3,6-dihydro-2H-1,3,4-oxadiazin-2-one] | 82 |  | 27 | 
10 | CCc1ccccc1-c1ccc(C2=NNC(=O)O[C@H]2C)cc1C(F)(F)F [Example 186, (6S)-5-[2′-Ethyl-2-(trifluoromethyl)[1,1′-biphenyl]-4-yl]-6-methyl-3,6-dihydro-2H-1,3,4-oxadiazin-2-one] | 71 |  | 61 | 
11 | CCOC1CN(c2ccc(C3=NNC(=O)OC3)cc2C(F)(F)F)C1 [Example 243, 5-[4-(3-Ethoxyazetidin-1-yl)-3-(trifluoromethyl)phenyl]-3,6-dihydro-2H-1,3,4-oxadiazin-2-one] |  | 48 | 6 | 100
12 | O=C1NN=C(c2ccc(NCc3ncccn3)c(C(F)(F)F)c2)CO1 [Example 244, 5-[4-{[(Pyrimidin-2-yl)methyl]amino}-3-(trifluoromethyl)phenyl]-3,6-dihydro-2H-1,3,4-oxadiazin-2-one] |  | 120 | 3 | 150
13 | C[C@@H](CCO)Nc1ccc(C2=NNC(=O)OC2)cc1C(F)(F)F [Example 246, 5-[4-{[(2S)-4-Hydroxybutan-2-yl]amino}-3-(trifluoromethyl)phenyl]-3,6-dihydro-2H-1,3,4-oxadiazin-2-one] |  | 95 | 12 | 210
14 | O=C1NN=C(c2ccc(NCC3(CO)CCC3)c(C(F)(F)F)c2)CO1 [Example 249, 5-[4-({[1-(Hydroxymethyl)cyclobutyl]methyl}amino)-3-(trifluoromethyl)phenyl]-3,6-dihydro-2H-1,3,4-oxadiazin-2-one] |  | 100 | 1 | 110
15 | O=C1NN=C(c2ccc(N3CC[C@H]3CO)c(C(F)(F)F)c2)CO1 [Example 250, 5-{4-[(2S)-2-(Hydroxymethyl)azetidin-1-yl]-3-(trifluoromethyl)phenyl}-3,6-dihydro-2H-1,3,4-oxadiazin-2-one] |  | 120 | 2 | 120
16 | O=C1NN=C(c2ccc(N3CC4CC4C3)c(C(F)(F)F)c2)CO1 (centres unmarked) [Example 252, 5-[4-(3-Azabicyclo[3.1.0]hexan-3-yl)-3-(trifluoromethyl)phenyl]-3,6-dihydro-2H-1,3,4-oxadiazin-2-one] |  | 110 | 1 | 86
17 | N#CCCCNc1ccc(C2=NNC(=O)OC2)cc1C(F)(F)F [Example 254, 4-[4-(2-Oxo-3,6-dihydro-2H-1,3,4-oxadiazin-5-yl)-2-(trifluoromethyl)anilino]butanenitrile] |  | 45 | 2 | 31
18 | O=C1NN=C(c2ccc(N3CC4(C3)CS(=O)(=O)C4)c(C(F)(F)F)c2)CO1 [Example 255, 6-[4-(2-Oxo-3,6-dihydro-2H-1,3,4-oxadiazin-5-yl)-2-(trifluoromethyl)phenyl]-2λ^6-thia-6-azaspiro[3.3]heptane-2,2-dione] |  | 100 | 5 | 76
19 | Nc1ncc(-c2ccc(C3=NNC(=O)OC3)cc2F)cn1 [Example 330, 5-[4-(2-aminopyrimidin-5-yl)-3-fluorophenyl]-3,6-dihydro-2H-1,3,4-oxadiazin-2-one] | > 100 |  | > 100 | 
